Test results as given in patent publication US20070135499A1 (Aerie Pharmaceuticals, Inc., priority 2005, published 2007).

Each compound was assayed against T1, hGRK-2 (Homo sapiens, UniProt P25098) (assay: luciferase-based (Kinase-Glo) biochemical kinase inhibition assay, hGRK-2). Conditions: luciferase assay, casein substrate, 10 μM ATP; read-out: GRK-2 inhibition, Ki class.
T1 sequence (P25098 1-689): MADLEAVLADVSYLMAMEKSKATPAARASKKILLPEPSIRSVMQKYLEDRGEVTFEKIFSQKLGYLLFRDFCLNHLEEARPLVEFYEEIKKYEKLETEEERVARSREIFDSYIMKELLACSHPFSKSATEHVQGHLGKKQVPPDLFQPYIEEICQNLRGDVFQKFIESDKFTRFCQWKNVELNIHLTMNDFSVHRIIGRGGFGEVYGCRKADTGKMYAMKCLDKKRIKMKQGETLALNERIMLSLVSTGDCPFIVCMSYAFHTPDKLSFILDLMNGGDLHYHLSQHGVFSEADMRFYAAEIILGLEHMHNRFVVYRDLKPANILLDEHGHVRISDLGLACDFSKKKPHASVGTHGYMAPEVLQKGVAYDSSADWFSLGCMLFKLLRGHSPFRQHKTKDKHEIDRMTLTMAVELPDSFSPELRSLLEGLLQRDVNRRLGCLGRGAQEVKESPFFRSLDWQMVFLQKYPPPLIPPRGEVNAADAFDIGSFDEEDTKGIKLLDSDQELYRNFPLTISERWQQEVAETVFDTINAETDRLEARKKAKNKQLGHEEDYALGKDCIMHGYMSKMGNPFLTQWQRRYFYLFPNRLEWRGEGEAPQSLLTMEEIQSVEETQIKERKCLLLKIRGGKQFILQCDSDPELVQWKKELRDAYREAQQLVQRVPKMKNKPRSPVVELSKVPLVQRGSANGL
Method: The inhibition of G-protein-coupled receptor kinases including hGRK-2 was determined for the hydrazide compounds using a biochemical assay. The inhibition of GRK-3, GRK-5 and GRK-6 was also determined using the same assay for some of the hydrazide derivatives.
The protein kinase inhibition was determined using a biochemical assay utilizing the light emission of a luciferase reaction. The luciferase-based assay operates on the following reaction principles: [drawing 10]
An inhibitor of GRK-2 will increase in the amount of ATP in solution, as shown. Thus, an inhibitor of GRK-2 will drive the luciferase reaction to the right, resulting in more light emitted. The amount of light emitted is proportional to the inhibition resulting from the GRK-2 inhibitor. The luciferase-based assay was also used to test some of the hydrazides for the inhibition properties towards other kinases.
The test procedure was as follows:
• 50 mM HEPES, pH 7.5 • 10 mM MgCl2 • 100 μM activated sodium orthovanadate • 0.01% CHAPS • 0.1% BSA • 1 mM DTT (added fresh daily) 10× Assay Buffer Stock: • 500 mM HEPES, pH 7.5 • 100 mM MgCl2 • 1 mM activated sodium orthovanadate • 0.1% CHAPS • 1% BSA (leave out for 10× compound dilution buffer) Final Assay Conditions: • 50 μM test compound • 20 μM casein • 10 μM ATP • 50 nM hGRK2 • 4.5% DMSO • 90-120 minute incubation
Stopped by addition of 30 μl 3×-diluted Kinase-Glo reagent containing 0.01% trypan blue. Counted on FUSION plate reader.
Compound Dilution and Transfer
Prepare sufficient buffer containing 40% DMSO to add 20 μl/well to the number of plates being assayed. This buffer should not contain BSA because it will precipitate with addition of 40% DMSO. (EXAMPLE: To make 3000 ml compound dilution buffer: 1200 ml DMSO, 180 ml 10× compound dilution buffer, 1615 ml ultrapure water, 3 ml 1M DTT.).
Using Multidrop, add 20 μl of compound dilution buffer to all wells of the 384-well daughter plate (add 1 μl DMSO to control wells). This will result in a daughter plate which contains 21 μl of ˜500 μM test compound.
Using the PlateTrak, transfer 5 μl of the test compounds to a 384-well, non-binding, white microtiter plate.
Prepare sufficient volume of buffer (with BSA and 1 mM DTT) containing 125 nM GRK2 and 25 μM ATP. (Example: To 219 ml of buffer was added 550 μl 10 mM ATP and 350 μl 79 μM GRK2).
Using Multidrop, add 20 μl of GRK2/ATP mixture to all wells of the microtiter plate.
Prepare sufficient volume of buffer (with BSA and 1 mM DTT) containing 40 μM casein. (EXAMPLE: To 211 ml buffer add 8.8 ml 1 mM casein)
Using Multidrop, add 25 μl to columns 1 through 23 of the microtiter plate. Add 25 μl of complete buffer to column 24 (blanks).
Mix reaction gently by tapping (Multidrop addition of casein does a decent job of mixing), stack plates and incubate at room temperature for between 90 and 120 minutes. Assay progression can be tracked in a separate plate if desired. Target 20-30% ATP consumption. Try to avoid exceeding 40% consumption as kinetics might become non-linear due to substrate (ATP) depletion.
Addition of Kinase-Glo Reagents
The Kinase-Glo reagent can be diluted 3-fold with no loss of data quality in this assay. Additionally, since the library contains many colored compounds which will quench the light emitted from the well resulting in a false negative (kinase inhibitors result in less ATP consumption thus more light emitted), the entire reaction is subject to intentional quench to override this effect. This intentional quench is accomplished by the addition of 0.01% trypan blue to the Kinase-Glo reagents. (EXAMPLE: 100 ml 1× Kinase-Glo reagents (prepared according to product insert), 200 ml assay buffer, 7.5 ml 0.4% trypan blue.
Using Multidrop, add 30 μl to all wells of the assay plate.
Count on FUSION plate reader in luminescence mode.

| SMILES | Ki [µM] |
| --- | --- |
| Cc1cccc(NCC(=O)N/N=C/c2ccncc2)c1 [Example 46, (3-Methyl-phenylamino)-acetic acid [1-pyridin-4-yl-meth-(E)-ylidene]-hydrazide] | 1 to 10 |
| O=C(CNc1ccc(F)cc1)N/N=C/c1c(Cl)cncc1Cl [Example 14, (4-Fluoro-phenylamino)-acetic acid [1-(3,5-dichloro-pyridin-4-yl)-meth-(E)-ylidene]-hydrazide] | 1 to 10 |
| Cc1ccc(NCC(=O)N/N=C/c2c(Cl)cncc2Cl)cc1 [Example 17, p-Tolylamino-acetic acid [1-(3,5-dichloro-pyridin-4-yl)-meth-(E)-ylidene]-hydrazide] | 1 to 10 |
| O=C(CNc1ccccc1)N/N=C/c1c(Cl)cncc1Cl [Example 2, Phenylamino-acetic acid [1-(3,5-dichloro-pyridin-4-yl)-meth-(E)-ylidene]-hydrazide] | 0.1 to 1 |
| Cc1ccccc1NCC(=O)N/N=C/c1c(Cl)cncc1Cl [Example 25, o-Tolylamino-acetic acid [1-(3,5-dichloro-pyridin-4-yl)-meth-(E)-ylidene]-hydrazide] | 1 to 10 |
| O=C(CNc1ccccc1)N/N=C/c1ccncc1 [Example 42, Phenylamino-acetic acid [1-pyridin-4-yl-meth-(E)-ylidene]-hydrazide] | 0.1 to 1 |
| O=C(COc1cccc(Cl)c1)N/N=C/c1ccncc1 [Example 38, (3-Chloro-phenoxy)-acetic acid [1-pyridin-4-yl-meth-(E)-ylidene]-hydrazide] | > 10 |
| O=C(CNc1ccccc1Br)N/N=C/c1c(Cl)cncc1Cl [Example 29, (2-Bromo-phenylamino)-acetic acid [1-(3,5-dichloro-pyridin-4-yl)-meth-(E)-ylidene]-hydrazide] | > 10 |
| O=C(CNc1cccc(OCCN2CCOCC2)c1)N/N=C/c1c(Cl)cncc1Cl [Example 32, [3-(2-Morpholin-4-yl-ethoxy)-phenylamino]-acetic acid [1-(3,5-dichloro-pyridin-4-yl)-meth-(E)-ylidene]-hydrazide] | 1 to 10 |

Results, then the compound that gave them:

| Ki [µM] | SMILES |
| --- | --- |
| 1 to 10 | CS(=O)(=O)c1cccc(NCC(=O)N/N=C/c2ccncc2)c1 [Example 73, (3-Methanesulfonyl-phenylamino)-acetic acid [1-pyridin-4-yl-meth-(E)-ylidene]-hydrazide] |
| > 10 | CCc1ccccc1NCC(=O)N/N=C/c1ccncc1 [Example 68, (2-Ethyl-phenylamino)-acetic acid [1-pyridin-4-yl-meth-(E)-ylidene]-hydrazide] |
| > 10 | NC(=O)c1ccc(NCC(=O)N/N=C/c2ccncc2)cc1 [Example 75, 4-{[1-Pyridin-4-yl-meth-(E)-ylidene-hydrazinocarbonylmethyl]-amino}-benzamide] |
| 0.01 to 0.1 | O=C(CNc1cccc(Oc2ccc(F)cc2F)c1)N/N=C/c1ccncc1 [Example 84, [3-(2,4-Difluoro-phenoxy)-phenylamino]-acetic acid [1-pyridin-4-yl-meth-(E)-ylidene]-hydrazide] |
| > 10 | COc1cc(NCC(=O)N/N=C/c2ccncc2)cc(OC)c1 [Example 100, (3,5-Dimethoxy-phenylamino)-acetic acid [1-pyridin-4-yl-meth-(E)-ylidene]-hydrazide] |
| > 10 | CS(=O)(=O)Nc1cccc(NCC(=O)N/N=C/c2ccncc2)c1 [Example 64] |
| > 10 | CC(Nc1cccc(Oc2ccccc2)c1)C(=O)N/N=C/c1ccncc1 (stereo not drawn) [Example 99, 2-(3-phenoxy-phenylamino)-propionic acid [1-pyridin-4-yl-meth-(E)-ylidene]-hydrazide] |
| > 10 | O=C(CNc1cccc(-n2cccn2)c1)N/N=C/c1ccncc1 [Example 82, (3-Pyrazol-1-yl-phenylamino)-acetic acid [1-pyridin-4-yl-meth-(E)-ylidene]-hydrazide] |
| 1 to 10 | CCc1cccc(NCC(=O)N/N=C/c2ccncc2)c1 [Example 59, (3-Ethyl-phenylamino)-acetic acid [1-pyridin-4-yl-meth-(E)-ylidene]-hydrazide] |
